Data as given in ChEMBL document CHEMBL4382226, “Design, synthesis and evaluation of hybrid of tetrahydrocarbazole with 2,4-diaminopyrimidine scaffold as antibacterial agents” (Eur J Med Chem, 2019).
In brackets after ≈: the same amount, converted by molar mass.

Columns and labels:
Escherichia coli = test: Antibacterial activity against Escherichia coli AB1157 measured after 16 hrs; format: functional; conditions: AB1157, 16 h
Staphylococcus aureus [1] = test: Antibacterial activity against Staphylococcus aureus Newman measured after 16 hrs; format: functional
Staphylococcus aureus [2] = test: Antibacterial activity against oxacillin/tetracycline-resistant Staphylococcus aureus NRS-100 measured after 16 hrs; format: functional; conditions: NRS-100, 16 h
Staphylococcus aureus [3] = test: Antibacterial activity against erythromycin-resistant Staphylococcus aureus NRS-70 measured after 16 hrs; format: functional; conditions: NRS-70, 16 h
Staphylococcus aureus [4] = test: Antibacterial activity against linezolid-resistant Staphylococcus aureus NRS-271 measured after 16 hrs; format: functional; conditions: NRS-271, 16 h
Staphylococcus aureus [5] = test: Antibacterial activity against gentamicin-resistant Staphylococcus aureus NRS-108 measured after 16 hrs; format: functional; conditions: NRS-108, 16 h
Staphylococcus aureus [6] = test: Antibacterial activity against aminoglycosides/tetracycline-resistant Staphylococcus aureus NRS-1 measured after 16 hrs; format: functional; conditions: NRS-1, 16 h
[7] = Apparent volume of distribution in Sprague-Dawley rat at 10 mg/kg, po administered as single dose via gavage; format: ADME, organism-based; conditions: in vivo
[8] = Half life in Sprague-Dawley rat at 10 mg/kg, po administered as single dose via gavage; format: ADME, organism-based; conditions: in vivo
[9] = Cmax in Sprague-Dawley rat at 10 mg/kg, po administered as single dose via gavage; format: ADME, organism-based; set-up: dose 10 mg/kg, route oral; conditions: in vivo
[10] = Clearance in Sprague-Dawley rat at 10 mg/kg, po administered as single dose via gavage; format: ADME, organism-based; conditions: in vivo
[11] = AUC (0 to t) in Sprague-Dawley rat at 10 mg/kg, po administered as single dose via gavage; format: ADME, organism-based; conditions: in vivo
[12] = Mean residence time in Sprague-Dawley rat at 10 mg/kg, po administered as single dose via gavage; format: ADME, organism-based; conditions: in vivo
[13] = AUC (0 to infinity) in Sprague-Dawley rat at 10 mg/kg, po administered as single dose via gavage; format: ADME, organism-based; set-up: dose 10 mg/kg, route oral, time infinity; conditions: in vivo
[14] = Tmax in Sprague-Dawley rat at 10 mg/kg, po administered as single dose via gavage; format: ADME, organism-based; conditions: in vivo

MIC (Escherichia coli) [µg/mL]	MIC (Staphylococcus aureus [1]) [µg/mL]	Structure (SMILES)	MIC (Staphylococcus aureus [2]) [µg/mL]	MIC (Staphylococcus aureus [3]) [µg/mL]	MIC (Staphylococcus aureus [4]) [µg/mL]	MIC (Staphylococcus aureus [5]) [µg/mL]	MIC (Staphylococcus aureus [6]) [µg/mL]	also measured
12.5 to 25 (≈ 29.6 to 59.2 µM)	12.5 to 25 (≈ 29.6 to 59.2 µM)	COc1cccc2c3c([nH]c12)C(NCCCNc1ccnc(NCC(C)C)n1)CCC3 (stereo not drawn)						
		CN(C)[C@@H]1C(O)=C(C(N)=O)C(=O)[C@@]2(O)C(O)=C3C(=O)c4c(O)cccc4[C@@](C)(O)[C@H]3C[C@@H]12 [TETRACYCLINE]	< 1.56	< 1.56	< 1.56	< 1.56	> 12.5	
> 50	> 50	CC(C)CNc1nccc(NCCCNC2CCCc3c2[nH]c2ccc(C(=O)O)cc32)n1 (stereo not drawn)						
	0.78 to 1.56 (≈ 1.86 to 3.72 µM)	CC(C)CNc1nccc(NC2CCCc3c2[nH]c2ccc(OC(F)(F)F)cc32)n1 (stereo not drawn)						
1.56 to 3.13 (≈ 3.41 to 6.84 µM)	1.56 to 3.13 (≈ 3.41 to 6.84 µM)	CC(C)CNc1nccc(NCCNC2CCCc3c2[nH]c2ccc(Br)cc32)n1 (stereo not drawn)						
	4 to 8 (≈ 12.6 to 25.1 µM)	Cc1ccc2[nH]c3c(c2c1)CCCC3NCCCc1ccccc1 (stereo not drawn)						
3.13 to 6.25 (≈ 6.77 to 13.5 µM)	3.13 to 6.25 (≈ 6.77 to 13.5 µM)	CC(C)CNc1nccc(NCCNC2CCCc3c2[nH]c2ccc(OC(F)(F)F)cc32)n1 (stereo not drawn)						
12.5 to 25 (≈ 31.8 to 63.7 µM)	12.5 to 25 (≈ 31.8 to 63.7 µM)	CC(C)CNc1nccc(NCCCNC2CCCc3c2[nH]c2ccccc32)n1 (stereo not drawn)						
3.13 to 6.25 (≈ 6.38 to 12.7 µM)	1.56 to 3.13 (≈ 3.18 to 6.38 µM)	CC(C)CNc1nccc(NCCCCNC2CCCc3c2[nH]c2ccc(OC(F)(F)F)cc32)n1 (stereo not drawn)						
	15 to 30.2 (≈ 49.3 to 99.2 µM)	Cc1ccc2[nH]c3c(c2c1)CCCC3NCCc1ccccc1 (stereo not drawn)						
12.5 to 25 (≈ 30.4 to 60.9 µM)	12.5 to 25 (≈ 30.4 to 60.9 µM)	CC(C)CNc1nccc(NCCCNC2CCCc3c2[nH]c2ccc(F)cc32)n1 (stereo not drawn)						
> 50	25 to 50 (≈ 55.5 to 111 µM)	COC(=O)c1ccc2[nH]c3c(c2c1)CCCC3NCCCNc1ccnc(NCC(C)C)n1 (stereo not drawn)						
> 50	25 to 50 (≈ 59.2 to 118 µM)	COc1ccc2[nH]c3c(c2c1)CCCC3NCCCNc1ccnc(NCC(C)C)n1 (stereo not drawn)						
1.56 to 3.13 (≈ 3.21 to 6.45 µM)	0.78 to 1.56 (≈ 1.61 to 3.21 µM)	CC(C)CNc1nccc(NCCCCNC2CCCc3c2[nH]c2ccc(Br)cc32)n1 (stereo not drawn)						
	14.5 to 20.9 (≈ 49.9 to 72 µM)	Cc1ccc2[nH]c3c(c2c1)CCCC3NCc1ccccc1 (stereo not drawn)						

Structure (SMILES)	MIC (Escherichia coli) [µg/mL]	MIC (Staphylococcus aureus [1]) [µg/mL]	MIC (Staphylococcus aureus [2]) [µg/mL]	MIC (Staphylococcus aureus [3]) [µg/mL]	MIC (Staphylococcus aureus [4]) [µg/mL]	MIC (Staphylococcus aureus [5]) [µg/mL]	MIC (Staphylococcus aureus [6]) [µg/mL]	also measured
CN[C@H](CC(C)C)C(=O)N[C@H]1C(=O)N[C@@H](CC(N)=O)C(=O)N[C@H]2C(=O)N[C@H]3C(=O)N[C@H](C(=O)N[C@H](C(=O)O)c4cc(O)cc(O)c4-c4cc3ccc4O)[C@H](O)c3ccc(c(Cl)c3)Oc3cc2cc(c3O[C@@H]2O[C@H](CO)[C@@H](O)[C@H](O)[C@H]2O[C@H]2C[C@](C)(N)[C@H](O)[C@H](C)O2)Oc2ccc(cc2Cl)[C@H]1O [VANCOMYCIN]	6.25 to 12.5 (≈ 4.31 to 8.63 µM)							
CC(C)CNc1nccc(NCCCNC2CCCc3c2[nH]c2ccc(Br)cc32)n1 (stereo not drawn)	0.39 to 0.78 (≈ 0.827 to 1.65 µM)	0.39 to 0.78 (≈ 0.827 to 1.65 µM)	0.78 to 1.56 (≈ 1.65 to 3.31 µM)	0.78 to 1.56 (≈ 1.65 to 3.31 µM)	0.78 to 1.56 (≈ 1.65 to 3.31 µM)	0.78 to 1.56 (≈ 1.65 to 3.31 µM)	0.39 to 0.78 (≈ 0.827 to 1.65 µM)	Vd/F [7]: 103 L/kg; half-life [8]: 10.8 h; Cmax [9]: 86.3 ng/mL; CL/F [10]: 110 mL/min/kg; AUC(0-t) [11]: 1200 ng·h/mL; MRT [12]: 16.2 h; AUC(0-inf) [13]: 1560 ng·h/mL; Tmax [14]: 3.6 h
Cc1ccc2[nH]c3c(c2c1)CCCC3NCCCCc1ccccc1 (stereo not drawn)		5 to 6.6 (≈ 15 to 19.9 µM)	2.9 to 4.2 (≈ 8.72 to 12.6 µM)	2.9 to 4.2 (≈ 8.72 to 12.6 µM)	4.2 to 5.8 (≈ 12.6 to 17.4 µM)	4.2 to 5.8 (≈ 12.6 to 17.4 µM)	2.9 to 4.2 (≈ 8.72 to 12.6 µM)	
CC(C)CNc1nccc(NCCCNC2CCCc3c2[nH]c2ccc(OC(F)(F)F)cc32)n1 (stereo not drawn)	1.56 to 3.13 (≈ 3.27 to 6.57 µM)	1.56 to 3.13 (≈ 3.27 to 6.57 µM)	1.56 to 3.13 (≈ 3.27 to 6.57 µM)	1.56 to 3.13 (≈ 3.27 to 6.57 µM)	1.56 to 3.13 (≈ 3.27 to 6.57 µM)	1.56 to 3.13 (≈ 3.27 to 6.57 µM)	1.56 to 3.13 (≈ 3.27 to 6.57 µM)	
CC(C)CNc1nccc(NCCCNC2CCCc3c2[nH]c2c(Br)cccc32)n1 (stereo not drawn)	6.25 to 12.5 (≈ 13.3 to 26.5 µM)	3.13 to 6.25 (≈ 6.64 to 13.3 µM)	6.25 to 12.5 (≈ 13.3 to 26.5 µM)	6.25 to 12.5 (≈ 13.3 to 26.5 µM)	6.25 to 12.5 (≈ 13.3 to 26.5 µM)	6.25 to 12.5 (≈ 13.3 to 26.5 µM)	3.13 to 6.25 (≈ 6.64 to 13.3 µM)	
CC(C)CNc1nccc(NCCCNC2CCCc3c2[nH]c2ccc(Cl)cc32)n1 (stereo not drawn)	1.56 to 3.13 (≈ 3.65 to 7.33 µM)	1.56 to 3.13 (≈ 3.65 to 7.33 µM)	3.13 to 6.25 (≈ 7.33 to 14.6 µM)	3.13 to 6.25 (≈ 7.33 to 14.6 µM)	1.56 to 3.13 (≈ 3.65 to 7.33 µM)	1.56 to 3.13 (≈ 3.65 to 7.33 µM)	1.56 to 3.13 (≈ 3.65 to 7.33 µM)	
NC[C@H]1O[C@H](O[C@H]2[C@H](O)[C@@H](O[C@H]3O[C@H](CO)[C@@H](O)[C@H](N)[C@H]3O)[C@H](N)C[C@@H]2N)[C@H](O)[C@@H](O)[C@@H]1O [KANAMYCIN]	> 50			50 to 75 (≈ 103 to 155 µM)		50 to 75 (≈ 103 to 155 µM)	50 to 75 (≈ 103 to 155 µM)	
CC(C)CNc1nccc(NCCCNC2CCCc3c2[nH]c2ccc(C(F)(F)F)cc32)n1 (stereo not drawn)	1.56 to 3.13 (≈ 3.39 to 6.8 µM)	1.56 to 3.13 (≈ 3.39 to 6.8 µM)	1.56 to 3.13 (≈ 3.39 to 6.8 µM)	1.56 to 3.13 (≈ 3.39 to 6.8 µM)	1.56 to 3.13 (≈ 3.39 to 6.8 µM)	1.56 to 3.13 (≈ 3.39 to 6.8 µM)	1.56 to 3.13 (≈ 3.39 to 6.8 µM)	
